Activity calls are given as the source filed them. The rule behind the calls is not given here.
Assays:
NCI-N87 = assay: Growth inhibition of human NCI-N87 cells; assay type: functional, cell-based
MDA-MB-361 = assay: Growth inhibition of human MDA-MB-361 cells; assay type: functional, cell-based
HT-29 = assay: Growth inhibition of human HT-29 cells; assay type: functional, cell-based
HeLa = assay: Mitotic arrest in human HeLa cells assessed as accumulation at […] at 0.98 to 30 uM using pHH3 staining-based fluorescent assay; assay type: functional, cell-based
[1] = target: T1, Threonine--tRNA ligase, mitochondrial (Homo sapiens) (UniProt Q9BW92); assay: Inhibition of threonyl tRNA synthetase (unknown origin) assessed as depletion of tRNAs at 50 uM by SToPs assay
T1 sequence (whole entry): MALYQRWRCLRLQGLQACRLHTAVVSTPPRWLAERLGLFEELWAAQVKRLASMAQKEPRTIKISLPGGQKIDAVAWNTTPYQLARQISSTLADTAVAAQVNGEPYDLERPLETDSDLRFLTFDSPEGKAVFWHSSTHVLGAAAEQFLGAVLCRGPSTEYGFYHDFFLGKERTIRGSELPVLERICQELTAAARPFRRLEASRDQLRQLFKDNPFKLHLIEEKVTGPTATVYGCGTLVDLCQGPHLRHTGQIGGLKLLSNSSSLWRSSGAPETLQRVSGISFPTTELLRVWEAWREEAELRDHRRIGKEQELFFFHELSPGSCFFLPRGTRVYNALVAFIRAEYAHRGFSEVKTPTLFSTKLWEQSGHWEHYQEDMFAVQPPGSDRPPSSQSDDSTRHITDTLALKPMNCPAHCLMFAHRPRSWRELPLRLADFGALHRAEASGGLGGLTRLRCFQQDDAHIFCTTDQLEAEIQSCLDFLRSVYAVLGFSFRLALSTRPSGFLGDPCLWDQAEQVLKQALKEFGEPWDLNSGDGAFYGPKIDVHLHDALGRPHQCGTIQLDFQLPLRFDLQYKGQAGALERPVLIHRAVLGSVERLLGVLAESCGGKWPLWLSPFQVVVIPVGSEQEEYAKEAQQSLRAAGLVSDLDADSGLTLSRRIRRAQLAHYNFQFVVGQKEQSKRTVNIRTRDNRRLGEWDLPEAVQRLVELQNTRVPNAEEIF

inhibition [1] | Compound | IC50 (NCI-N87) [nM] | IC50 (MDA-MB-361) [nM] | IC50 (HT-29) [nM] | Activity (HeLa)
 | C[C@@H]1C[C@H](C)C[C@H](C)[C@@H](O)CC(=O)O[C@H]([C@@H]2CCC[C@H]2C(=O)O)C/C=C/C=C(/C#N)[C@H](O)[C@@H](C)C1 [BORRELIDIN] | 50 | 420 | 920 | 
Active | C[C@@H]1C[C@H](C)C[C@H](C)[C@@H](O)CC(=O)O[C@H]([C@@H]2CCC[C@H]2C(=O)O)C/C=C/C=C(/CN)[C@H](O)[C@@H](C)C1 | 1300 | 2200 | 2000 | Dose-dependent effect
inactive | CC(=O)NC/C1=C/C=C/C[C@@H]([C@@H]2CCC[C@H]2C(=O)O)OC(=O)C[C@H](O)[C@@H](C)C[C@@H](C)C[C@@H](C)C[C@H](C)[C@H]1O |  |  |  | inactive

From ChEMBL document CHEMBL3352183, “Borrelidin B: isolation, biological activity, and implications for nitrile biosynthesis” (J Nat Prod, 2014)
